# According to patent US7741274B2, “Casein derived peptides and uses thereof in therapy” (priority 2000, dated 2010):
# Experiments:
# [1] = system: Non-Obese Diabetic (NOD) mice; test: Prevention of glucosuria / Juvenile (Type I, IDDM) Diabetes in NOD mice; assay type: in vivo, mouse; settings: for onset of glucosuria: assayed at week 16, untreated controls 100% glucosuria, data not shown; for Healthy/Total* (healthy and well = sugar not detected in urine): female NOD mice
# Protocol: Juvenile (Type I, IDDM) Diabetes in Non-Obese Diabetic (NOD) Mice:
# Peptides Derived from Natural Casein:
# NOD mice are a commonly used model for research of autoimmune disease and human Juvenile Diabetes. Six week old female NOD mice received either one or two injections per week of 100 μg of peptides derived from natural casein, for a total of 5 or 11 treatments. Control mice received no treatment. The severity of disease was determined according to glucosuria, which was measured using Combi test sticks [Gross, D. J. et al. (1994), Diabetology, 37:1195]. Results were expressed as the percent of glucosuria-free mice in each sample over a 365-day period.
# Synthetic Peptides Derived from Casein:
# In another experiment, 6 week old female NOD mice received one injection per week of 100 μg of Synthetic peptides derived from casein for a total of 5 treatments. Control mice received no treatment. Results were expressed as the number of healthy mice in the various treated groups.
# [2] = system: human Peripheral Blood Stem Cells (PBSC); test: Natural Killer (NK) cell activity in cultured human PBSC (lysis of K562 target cells); assay type: cell-based
# Protocol: Stimulation of Proliferation of Natural Killer (NK) Cells:
# From human Peripheral Blood Stem Cells (PBSC): PBSC of G-CSF treated subjects were separated on a FICOLL gradient, washed twice with RPMI-1640 medium and seeded into 1.5 ml wells with or without peptides derived from natural casein or synthetic peptides derived from casein, as indicated, (0-500 μg per ml). Following two days incubation the cells were assayed for Natural Killer activity by measuring radioactivity released from ^35S-labeled K562 target cells (NEG-7Q9A, 185.00 MBq, 2.00 mCi EASYTAGth Methionine, L-[^35S] 43.48 TBq per mmol, 1175.0 Ci per mmol, 0.488 ml, Boston USA). Two concentrations of effector cells ([…] cells per well) were incubated with 5×10^3 target cells per well (effector:target cell ratios of 50:1 and 100:1, respectively) in U-bottomed 96 well tissue culture plates. The cells were incubated for 5 hours at 37° C. in 5% CO2, 95% air and precipitated by 5 minutes centrifugation at 1000 rpm. ^35S release was measured in 50 μl samples of the supernatant liquid.
# HIV-1IIIB = test: Inhibition of HIV-1 infection of CEM lymphocytes (cell counts, P24 antigen assay); assay type: cell-based; settings: for HIV-1 infection level, P24 antigen: untreated control 0.52
# Protocol: Inhibition of in vitro HIV infection of human lymphocyte cells:
# Peptides: Peptides (either peptides derived from natural casein or synthetic peptides derived from casein (1-25 amino acids in length, see table 3) supplied as lyophilized powder were resuspended in RPMI complete medium and added to cell cultures at a final concentrations of 50 to 1000 μg per ml.
# Cells: Several types of freshly isolated human cells (primary cells) and cell lines are known to be susceptible to in vitro HIV-1 infection, although essentially any cell displaying even low surface levels of the CD4 molecule can be considered a potential target for HIV-1 infection. Two commonly used human cell lines which are highly sensitive for HIV-1 infection were chosen, CEM and Sup-T1.
# CEM is a human T4-lymphoblastoid cell line initially derived by G. E. Foley et al. [(1965), Cancer 18:522] from peripheral blood buffy coat of a person with acute lymphoblastic leukemia. These cells were continuously maintained in suspension in medium, and have been used widely for analysis of infectivity, antiviral agents and neutralizing antibodies.
# Virus: The HIV virus strain employed was HIV-1IIIB, originally designated HTLV-IIIB. Concentrated culture fluids of peripheral blood from several patients with AIDS or related diseases were used to establish a permanent productive infection in H-9 cells. This subtype B virus has high capacity to replicate in human T-cell lines. Viral titer was 5.38 ng per ml in stock solution.
# HIV-1 P24 antigen capture assay: An HIV-1 P24 Antigen capture assay kit employed was designed to quantitate the HIV-1 P24 core antigen, which is proportionally related to the degree of viral production in cells. This kit was purchased from the AIDS Vaccine program of the SAIC-NCI-Frederick Cancer Research Institute, P.O. Box B, Frederick, Md. 21702, USA and included 96 well plates coated with monoclonal antibody to HIV-1 P24, primary antibody-rabbit anti-HIV P24 serum, secondary antibody-Goat anti-rabbit-IgG (H+ L) peroxidase conjugated antibody, TMB peroxidase substrate system and lysed HIV-1 P24 standard. The HIV-1 P24 antigen capture assay was analyzed by Organon-Technica ELISA reader at 450 nm with a reference at 650 nm.
# HIV-1 P24 antigen capture ELISA: HIV infection was measured with an indirect enzyme immunoassay which detects HIV-1 P24 core antigens in tissue culture media. Tissue culture supernatant was reacted with primary rabbit anti-HIV-1 P24 antigen and visualized by peroxidase conjugated goat anti rabbit IgG. The reaction was terminated by adding 4N H2SO4, wherein the intensity of the color developed is proportional to the amount of HIV-1 antigen present in the tissue culture supernatant.
# HIV infection of human cultured CD4+ cells: The cells (CEM, Sup-T1) were preincubated with several increasing concentrations of peptides derived from natural casein (50-1000 μg per ml) or synthetic peptides derived from casein (10-500 μg per ml) for 3, 24 (for synthetic and natural peptides) and 48 (only for natural peptides) hours and HIV-1IIIB (45 μg per ml final concentration) was added to each well thereafter. HIV-1IIIB was preincubated with the peptides for 3 hours and then added to cells (5000 cells/well) in tissue culture plates. Controls were IF (Infected, cells cultured with HIV-1 and without peptides), UIF (Uninfected, cells cultured without HIV-1 and without peptides) and UIF+Ch (Uninfected+peptides derived from natural casein, cells cultured in the presence of peptides derived from natural casein {50-1000 μg per ml}) to test the effect of peptides derived from natural casein and synthetic peptides derived from casein on cell viability and growth. Cells were counted for viability and proliferation rate on day 7, 10 and day 14 post infection (the day of P24 antigen culture supernatant harvest). Cells and tissue culture supernatants (media) were harvested and lysed immediately in 1/10 volume of 10% Triton X-100. […]
# [3] = system: murine primary bone marrow cells; test: Multipotential colonies (CFU-GEMM) from murine bone marrow cells, colony and differential counts; assay type: cell-based, mouse; settings: for megakaryocyte formation and development: 8 days treatment; for macrophages, % of total cell count: approximately 17% in unincubated controls
# Protocol: Stimulation of Hematopoiesis from Bone Marrow (BM) Cells in Culture:
# Proliferation of megakaryocytes in multipotential colonies (CFU-GEMM) from murine Bone Marrow cells: Primary bone marrow cells (1×10^5 per ml) from 8-12 week-old C3H/HeJ mice were grown in serum-free methyl cellulose-IMDM medium for 8-9 days at 5% CO2, 95% air, at 37° C. The medium, appropriate for the growth of multipotential colonies (CFU-GEMM), contained 1% BSA (Sigma), 10^−4 M thioglycerol (Sigma), 2.8×10^−4 M human transferrin (TF, Biological industries, Israel), 10% WEHI-CM as a source of IL-3 and 2 units per ml erythropoietin (rhEPO, R & D Systems, Minneapolis). Colonies were scored after 8-9 days using an Olympus dark field microscope. They were picked with a micropipette, cytocentrifuged and stained with May-Grunwald-Giemsa for differential counts. At least 700 cells were counted for each preparation. […]
# Proliferation of Macrophage cells in CFU-GEMM: Multipotent (CFU-GEMM colonies grown from primary bone marrow cells as described for the assay of megakaryocyte proliferation above were collected, stained and counted for macrophage cells. At least 700 cells were counted for each preparation.
# Proliferation of Red Blood Cells in CFU-GEMM: Multipotent (CFU-GEMM) colonies grown from primary bone marrow cells as described for the assay of megakaryocyte proliferation above were collected, stained and counted for red blood cells. At least 700 cells were counted for each preparation. […]
# [4] = system: lethally irradiated, bone marrow-reconstituted mice; test: Leukocyte and platelet reconstitution in bone marrow transplant recipient mice; assay type: in vivo, mouse; settings: for platelet counts: 800 cGy, 100 μg per mouse i.p. on days 4-7; for peripheral white blood cell counts: BALB/c, 600 cGy, 1 mg per mouse intraperitoneal
# Protocol: Leukocyte and platelet reconstitution in bone marrow transplant recipient mice: BALB/c mice were lethally irradiated at a source to skin distance of 70 cm, dosage of 50 cGy per minute, for a total of 600 cGy. The irradiated mice were […] casein, synthetic peptides derived from casein (13-26 amino acids, see Table 3 above), or human serum albumin (controls), following a double-blinded protocol. Leukocyte reconstitution was determined according to cell count in peripheral blood collected at indicated intervals from 6 to 12 days post treatment. Platelet reconstitution was determined by cell count in blood collected from the retro orbital plexus, into heparinized capillaries, at indicated intervals from day 6 to day 15 post treatment.
# In an additional series of experiments, CBA mice were lethally irradiated (900 cGy), reconstituted and treated with peptides derived from natural casein or human serum albumin as described above. Platelet reconstitution was assayed as mentioned above.
# In a third series of experiments, the mice were irradiated (800 cGy), reconstituted and injected intraperitoneally with 100 μg synthetic peptides derived from casein (peptides 3a and 4P, representing the first 6 and 12 amino acids of the N terminus of αS1 casein, respectively—see Table 3 above) daily, on days 4, 5, 6 and 7 post-transplantation. Platelet reconstitution was assayed at 10 and 12 days post-transplantation.
# [5] = system: Non-Obese Diabetic (NOD) mice; test: Intraperitoneal Glucose Tolerance Test (IPGTT) in NOD mice; assay type: in vivo, mouse; parameters: IPGT TEST 0 min. (pre-load), plasma glucose: unit not given here; settings: individual healthy NOD mice, 25 weeks after peptides
# Protocol: Intraperitoneal Glucose Tolerance Test (IPGTT):
# The glucose tolerance test is the definitive method for investigating glucose metabolism and diabetic tendencies in mammals. Twenty five (25) weeks after receiving Synthetic peptides derived from casein, response to a glucose load was assessed with an intraperitoneal glucose tolerance test. Glucose injection consisted of 1 g/kg body weight. Glycemic values were determined from blood drawn prior to test (0 minutes) and 60 minutes after loading.
# [6] = 12 days post transplantation, controls 676 (4P) and 461 (3a)
# [7] = 100 μg once weekly for 5 weeks, evaluated after 25 weeks
substance,measurement,setting,value
RPK [1P],onset of glucosuria,[1],effectively prevented
same,effect on NK activity in PBSC cultures from healthy human donors,[2],No significant effect
same,patients (of 5 tested) responding,[2]; 25 μg/ml peptide concentration,3
same,patients (of 5 tested) responding,[2]; 100 μg/ml peptide concentration,1
same,patients (of 5 tested) responding,[2]; 250 μg/ml peptide concentration,1
same,lymphocyte cell numbers,"HIV-1IIIB; 100 μg per ml, 3 hours pretreatment, infected control 1.06×10^6",1.29 ×10^6
same,"HIV-1 infection level, P24 antigen","HIV-1IIIB; 100 μg/ml, 7 days post infection",0.17 ng P24 Antigen/ml
same,lymphocyte cell numbers,"HIV-1IIIB; 500 μg per ml, 3 hours pretreatment, infected control 1.06×10^6",2.01 ×10^6
same,"HIV-1 infection level, P24 antigen","HIV-1IIIB; 500 μg/ml, 7 days post infection",0.14 ng P24 Antigen/ml
same,resistance of CEM cells to HIV-1 infection (in words),HIV-1IIIB; 3 hours pretreatment,significant degree of resistance to infection
RPKH [2P],onset of glucosuria,[1],effectively prevented
same,"red blood cells, % of total cell count",[3]; 53% in unincubated controls,71%
RPKHPI [4P],megakaryocyte formation and development,[3],significant increase
same,increase of platelet counts over untreated controls,[4]; 12 days post transplantation,29%
same,platelet counts,[4]; [6],872000 mL⁻¹
same,cell counts,"HIV-1IIIB; 25 μg per ml, 3 hours pretreatment, infected control 1.06×10^6",1.26 ×10^6
same,cell numbers,"HIV-1IIIB; 250 μg per ml, 3 hours preincubation, infected control 1.06×10^6",1.59 ×10^6
same,resistance of CEM cells to HIV-1 infection (in words),HIV-1IIIB; 3 hours pretreatment,significant effect on the susceptibility
same,"viral particles by HIV-P24 antigen assay vs untreated, infected control",HIV-1IIIB; 7 days post infection,dose dependent reduction
RPKHPIK [5P],"macrophages, % of total cell count",[3],~30%
RPKHPIKH [Y],Healthy/Total* (healthy and well = sugar not detected in urine),[1]; [7],1/5
RPKHPIKHQG [1a],Healthy/Total* (healthy and well = sugar not detected in urine),[1]; [7],1/5
same,"IPGT TEST 0 min. (pre-load), plasma glucose",[5],88
RPKHPIKHQGLP [3a],prevention of glucosuria (in words),[1]; [7],highly effective
same,Healthy/Total* (healthy and well = sugar not detected in urine),[1]; [7],3/5
same,megakaryocyte formation and development,[3],significant increase
same,increase of platelet counts over untreated controls,[4]; 10 days post transplantation,up to 35.5%
same,platelet counts,"[4]; 10 days post transplantation, control 169",229000 mL⁻¹
same,increase of platelet counts over untreated controls,[4]; 12 days post transplantation,up to 13.5%
same,platelet counts,[4]; [6],622000 mL⁻¹
RPKHPIKHQGLPQ [A],Healthy/Total* (healthy and well = sugar not detected in urine),[1]; [7],2/5
same,peripheral white blood cell counts,"[4]; day 10, albumin control 16.7",17.2 ×10^6 cells per dl
same,peripheral white blood cell counts,"[4]; day 12, albumin control 46.4",65.4 ×10^6 cells per dl
RPKHPIKHQGLPQE [B],Healthy/Total* (healthy and well = sugar not detected in urine),[1]; [7],2/5
same,"IPGT TEST 0 min. (pre-load), plasma glucose",[5],130
same,"IPGT TEST 60 min. post load, plasma glucose",[5]; glucose 1 g/kg i.p.,97 mmol/L
RPKHPIKHQGLPQEVL [D],Healthy/Total* (healthy and well = sugar not detected in urine),[1]; [7],2/5
same,"macrophages, % of total cell count",[3],~30%
RPKHPIKHQGLPQEVLN,megakaryocyte formation and development,[3],significant increase
same,peripheral white blood cell counts,"[4]; day 10, albumin control 16.7",27.4 ×10^6 cells per dl
same,peripheral white blood cell counts,"[4]; day 12, albumin control 46.4",52.0 ×10^6 cells per dl
RPKHPIKHQGLPQEVLNE [F],megakaryocyte formation and development,[3],significant increase
RPKHPIKHQGLPQEVLNEN,megakaryocyte formation and development,[3],significant increase
RPKHPIKHQGLPQEVLNENL,megakaryocyte formation and development,[3],significant increase
RPKHPIKHQGLPQEVLNENLL,Healthy/Total* (healthy and well = sugar not detected in urine),[1]; [7],2/5
same,megakaryocyte formation and development,[3],significant increase
RPKHPIKHQGLPQEVLNENLLR [J],Healthy/Total* (healthy and well = sugar not detected in urine),[1]; [7],3/5
RPKHPIKHQGLPQEVLNENLLRF,Healthy/Total* (healthy and well = sugar not detected in urine),[1]; [7],2/5
same,"macrophages, % of total cell count",[3],~30%
RPKHPIKHQGLPQEVLNENLLRFF,megakaryocyte formation and development,[3],significant increase
